In brackets after ≈: the same amount, converted by molar mass.
Experiments:
HIV-1 WT strain (IIIB) = assay: Anti-HIV-1 activity in MT-4 cells, MTT method, WT strain IIIB; type: cell-based; conditions: Human immunodeficiency virus 1, IIIB, MT4, read-out: EC50 IIIB
[1] = system: HIV-1 K103N + Y181C (RES056); assay: microbe, parasite or virus in culture; type: cell-based
HIV-1 L100I = assay: microbe, parasite or virus in culture; type: cell-based
HIV-1 K103N = assay: microbe, parasite or virus in culture; type: cell-based
HIV-1 Y181C = assay: microbe, parasite or virus in culture; type: cell-based
HIV-1 Y188L = assay: microbe, parasite or virus in culture; type: cell-based
HIV-1 E138K = assay: microbe, parasite or virus in culture; type: cell-based
HIV-1 F227L + V106A = assay: microbe, parasite or virus in culture; type: cell-based
[2] = Cytotoxicity in mock-infected MT-4 cells, MTT method; type: cell-based; conditions: human
HIV-1 RT = HIV-1 RT (Human immunodeficiency virus type 1 group M subtype B, UniProt P03366); assay: HIV-1 RT inhibition assay; type: biochemical
CYP2C9 = CYP2C9 (Homo sapiens, UniProt P11712); assay: Cytochrome P450 inhibition assay, CYP2C9; type: in vitro ADME
CYP2C19 = CYP2C19 (Homo sapiens, UniProt P33261); assay: Cytochrome P450 inhibition assay, CYP2C19; type: in vitro ADME
hERG channel = hERG channel (Homo sapiens, UniProt Q12809); assay: hERG channel inhibition assay, manual patch-clamp in HEK293 cells; type: cell-based; conditions: HEK293 cells stably transfected with hERG cDNA
[3] = In vivo pharmacokinetics in SD rats; design: species or system Sprague–Dawley (SD) rats
[4] = Single-dose acute toxicity in mice; type: in vivo; conditions: Kunming mice, single intragastric dose 2000 mg/kg, 7 days observation
[5] = system: main CYP enzymes (CYP1A2, CYP2C9, CYP2C19, CYP2D6, CYP3A4; range over isoforms); assay: Cytochrome P450 inhibition assay, summary over isoforms; type: in vitro ADME; conditions: human, human liver microsomes
CYP2D6 = CYP2D6 (Homo sapiens, UniProt P10635); assay: biochemical
CYP1A2 = biological target: T1, CYP1A2 (Homo sapiens, UniProt P05177); assay: Cytochrome P450 inhibition assay, CYP1A2
T1 sequence (P05177 1-516): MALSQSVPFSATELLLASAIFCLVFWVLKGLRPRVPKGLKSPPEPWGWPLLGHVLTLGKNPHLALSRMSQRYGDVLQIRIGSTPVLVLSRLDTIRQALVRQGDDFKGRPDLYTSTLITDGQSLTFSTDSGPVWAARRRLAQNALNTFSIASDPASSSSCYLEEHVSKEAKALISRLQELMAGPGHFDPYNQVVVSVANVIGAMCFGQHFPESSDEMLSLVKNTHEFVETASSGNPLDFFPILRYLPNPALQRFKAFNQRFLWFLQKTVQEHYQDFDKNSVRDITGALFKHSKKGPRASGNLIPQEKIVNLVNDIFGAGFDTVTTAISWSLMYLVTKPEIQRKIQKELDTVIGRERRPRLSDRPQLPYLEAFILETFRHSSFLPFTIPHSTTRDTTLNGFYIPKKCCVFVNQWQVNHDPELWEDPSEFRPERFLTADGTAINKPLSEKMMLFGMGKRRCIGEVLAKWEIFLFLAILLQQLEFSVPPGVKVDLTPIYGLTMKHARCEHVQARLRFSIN

CYP3A4 = CYP3A4 (Homo sapiens, UniProt P08684); assay: Cytochrome P450 inhibition assay, CYP3A4
[6] = resistance fold, EC50 (mutant strain)/EC50 (WT strain)
[7] = selectivity index, ratio of CC50/EC50
[8] = Sprague-Dawley, rat, plasma, iv, 2 mg/kg
[9] = Sprague-Dawley, rat, plasma, po, 20 mg/kg

CYP3A4, sequence (P08684 whole entry): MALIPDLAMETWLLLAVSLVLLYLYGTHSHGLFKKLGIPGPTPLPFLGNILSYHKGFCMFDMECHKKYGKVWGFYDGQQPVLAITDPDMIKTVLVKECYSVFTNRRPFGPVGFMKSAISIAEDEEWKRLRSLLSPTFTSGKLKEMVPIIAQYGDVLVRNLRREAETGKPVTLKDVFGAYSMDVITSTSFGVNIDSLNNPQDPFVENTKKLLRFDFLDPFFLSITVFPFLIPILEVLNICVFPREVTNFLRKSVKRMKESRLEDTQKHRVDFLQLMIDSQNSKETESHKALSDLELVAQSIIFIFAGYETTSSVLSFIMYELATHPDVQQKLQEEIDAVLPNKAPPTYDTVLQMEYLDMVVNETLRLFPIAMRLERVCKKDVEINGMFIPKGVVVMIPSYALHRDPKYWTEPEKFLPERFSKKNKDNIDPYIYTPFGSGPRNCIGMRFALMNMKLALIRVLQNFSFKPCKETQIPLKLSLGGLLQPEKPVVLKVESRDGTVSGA
hERG channel, sequence (Q12809 whole entry): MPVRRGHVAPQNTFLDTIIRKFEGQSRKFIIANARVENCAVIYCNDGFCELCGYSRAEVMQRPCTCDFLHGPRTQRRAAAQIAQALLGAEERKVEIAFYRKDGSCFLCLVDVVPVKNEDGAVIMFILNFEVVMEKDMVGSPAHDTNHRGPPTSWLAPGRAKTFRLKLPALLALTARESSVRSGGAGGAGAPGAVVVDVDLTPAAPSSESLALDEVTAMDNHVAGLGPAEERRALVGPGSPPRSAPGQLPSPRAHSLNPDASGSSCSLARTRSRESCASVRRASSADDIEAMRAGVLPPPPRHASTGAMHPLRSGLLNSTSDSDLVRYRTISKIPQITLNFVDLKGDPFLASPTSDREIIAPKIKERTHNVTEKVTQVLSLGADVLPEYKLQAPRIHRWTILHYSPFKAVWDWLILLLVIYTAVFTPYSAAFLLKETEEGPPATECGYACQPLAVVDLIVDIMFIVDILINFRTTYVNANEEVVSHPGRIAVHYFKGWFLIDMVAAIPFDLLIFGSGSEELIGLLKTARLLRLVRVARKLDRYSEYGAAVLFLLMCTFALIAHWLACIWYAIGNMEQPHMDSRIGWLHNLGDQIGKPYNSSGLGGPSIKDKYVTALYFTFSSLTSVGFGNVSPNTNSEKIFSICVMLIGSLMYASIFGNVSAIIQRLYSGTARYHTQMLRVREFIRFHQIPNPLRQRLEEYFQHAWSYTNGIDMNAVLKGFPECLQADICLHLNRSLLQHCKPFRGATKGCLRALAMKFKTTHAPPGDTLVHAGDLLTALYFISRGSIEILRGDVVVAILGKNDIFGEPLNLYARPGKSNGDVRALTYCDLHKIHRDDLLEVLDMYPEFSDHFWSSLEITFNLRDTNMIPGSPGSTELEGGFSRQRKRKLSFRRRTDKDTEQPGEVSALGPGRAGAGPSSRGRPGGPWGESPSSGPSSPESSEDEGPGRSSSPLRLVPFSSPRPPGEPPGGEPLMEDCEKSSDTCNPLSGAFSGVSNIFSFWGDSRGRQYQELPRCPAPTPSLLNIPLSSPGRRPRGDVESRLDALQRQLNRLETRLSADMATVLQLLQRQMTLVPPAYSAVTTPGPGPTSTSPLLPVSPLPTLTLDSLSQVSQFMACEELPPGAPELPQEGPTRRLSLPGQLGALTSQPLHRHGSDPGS
CYP2C9, sequence (P11712 whole entry): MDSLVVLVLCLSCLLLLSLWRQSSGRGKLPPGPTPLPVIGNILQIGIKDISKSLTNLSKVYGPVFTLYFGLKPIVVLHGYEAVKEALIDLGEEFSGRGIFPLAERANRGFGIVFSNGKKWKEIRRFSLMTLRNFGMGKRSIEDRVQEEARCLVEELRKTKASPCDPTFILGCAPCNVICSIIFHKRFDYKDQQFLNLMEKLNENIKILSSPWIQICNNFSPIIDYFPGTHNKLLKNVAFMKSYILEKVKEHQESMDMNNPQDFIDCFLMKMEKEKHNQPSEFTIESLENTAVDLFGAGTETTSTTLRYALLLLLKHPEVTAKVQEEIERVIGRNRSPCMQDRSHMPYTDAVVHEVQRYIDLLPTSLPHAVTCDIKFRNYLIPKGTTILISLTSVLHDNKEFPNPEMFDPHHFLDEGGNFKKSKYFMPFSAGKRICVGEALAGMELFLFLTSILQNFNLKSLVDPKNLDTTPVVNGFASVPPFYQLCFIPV
CYP2C19, sequence (P33261 whole entry): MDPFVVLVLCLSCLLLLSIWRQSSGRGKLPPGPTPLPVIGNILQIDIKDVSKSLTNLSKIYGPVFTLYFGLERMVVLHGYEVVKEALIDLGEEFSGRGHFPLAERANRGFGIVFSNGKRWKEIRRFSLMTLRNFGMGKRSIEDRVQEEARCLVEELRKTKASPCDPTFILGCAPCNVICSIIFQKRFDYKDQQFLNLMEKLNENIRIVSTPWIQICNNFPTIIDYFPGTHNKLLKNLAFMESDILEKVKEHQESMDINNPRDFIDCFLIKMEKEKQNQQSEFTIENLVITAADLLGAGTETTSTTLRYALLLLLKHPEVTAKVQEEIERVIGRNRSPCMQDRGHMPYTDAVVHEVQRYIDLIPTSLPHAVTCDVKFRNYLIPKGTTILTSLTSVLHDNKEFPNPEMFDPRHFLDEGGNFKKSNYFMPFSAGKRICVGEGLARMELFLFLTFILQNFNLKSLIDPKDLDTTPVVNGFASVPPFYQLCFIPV
CYP2D6, sequence (P10635 whole entry): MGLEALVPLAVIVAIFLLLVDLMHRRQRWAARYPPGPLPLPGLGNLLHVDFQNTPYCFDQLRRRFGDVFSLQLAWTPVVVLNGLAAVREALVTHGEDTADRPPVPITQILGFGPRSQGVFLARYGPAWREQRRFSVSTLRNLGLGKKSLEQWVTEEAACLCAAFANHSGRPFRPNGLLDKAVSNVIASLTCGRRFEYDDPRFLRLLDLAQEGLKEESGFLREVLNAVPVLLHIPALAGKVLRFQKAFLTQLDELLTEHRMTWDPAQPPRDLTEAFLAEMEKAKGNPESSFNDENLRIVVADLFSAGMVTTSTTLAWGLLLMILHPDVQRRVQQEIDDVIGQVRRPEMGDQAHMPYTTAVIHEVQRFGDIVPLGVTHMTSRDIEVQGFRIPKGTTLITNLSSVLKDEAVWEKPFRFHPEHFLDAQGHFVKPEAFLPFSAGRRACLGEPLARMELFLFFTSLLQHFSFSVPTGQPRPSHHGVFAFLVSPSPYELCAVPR

For Cc1cc(/C=C/C#N)cc(C)c1Oc1nc(NC2CCN(Cc3ccc(S(N)(=O)=O)cc3)CC2)nc2c1SCCC2 [compound 23h, (E)-4-((4-((4-(4-(2-Cyanovinyl)-2,6-dimethylphenoxy)-7,8-dihydro-6H-thiopyrano[3,2-d]pyrimidin-2-yl)amino)piperidin-1-yl)methyl)benzenesulfonamide], the EC50 (HIV-1 WT strain (IIIB)) was 3.43 ± 2 nM, the EC50 ([1]; Human immunodeficiency virus 1, MT4, read-out: EC50 RES056) was 15.2 ± 9.44 nM and the “Fold greater potency than EFV, RES056” value ([1]; ratio of EC50 values vs EFV) was 7.5 fold. For the same molecule, the “Fold greater potency than ETR, RES056” value ([1]; ratio of EC50 values vs ETR) was 2.3 fold, the “RF RES056” value [1, 6] was 4.4 and the “SI RES056” value [1, 7] was 218. For the same molecule, the EC50 (HIV-1 L100I; Human immunodeficiency virus 1, MT4, read-out: EC50 L100I) was 4.46 ± 0.36 nM, the “Times greater activity than ETR, L100I” value (HIV-1 L100I; ratio of EC50 values vs ETR) was 2.0 times and the “RF L100I” value (HIV-1 L100I; [6]) was 1.3. The “SI L100I” value (HIV-1 L100I; [7]) was 742, the EC50 (HIV-1 K103N; Human immunodeficiency virus 1, MT4, read-out: EC50 K103N) was 6.13 ± 0.12 nM and the “RF K103N” value (HIV-1 K103N; [6]) was 1.8. For the same molecule, the “SI K103N” value (HIV-1 K103N; [7]) was 540, the EC50 (HIV-1 Y181C; Human immunodeficiency virus 1, MT4, read-out: EC50 Y181C) was 8.46 ± 1.17 nM and the “Fold improvement in potency compared to ETR, Y181C” value (HIV-1 Y181C; ratio of EC50 values vs ETR) was 1.7 fold. For the same molecule, the “RF Y181C” value (HIV-1 Y181C; [6]) was 2.5, the “SI Y181C” value (HIV-1 Y181C; [7]) was 391 and the EC50 (HIV-1 Y188L; Human immunodeficiency virus 1, MT4, read-out: EC50 Y188L) was 16.5 ± 5.18 nM. For the same molecule, the “RF Y188L” value (HIV-1 Y188L; [6]) was 4.8, the “SI Y188L” value (HIV-1 Y188L; [7]) was 201 and the EC50 (HIV-1 E138K; Human immunodeficiency virus 1, MT4, read-out: EC50 E138K) was 21.4 ± 4.19 nM. For the same molecule, the “RF E138K” value (HIV-1 E138K; [6]) was 6.2, the “SI E138K” value (HIV-1 E138K; [7]) was 155 and the EC50 (HIV-1 F227L + V106A; Human immunodeficiency virus 1, MT4, read-out: EC50 F227L + V106A) was 5.35 ± 0.69 nM. The “Fold better than EFV, F227L + V106A” value (HIV-1 F227L + V106A; ratio of EC50 values vs EFV) was 14.5 fold, the “Fold better than RPV, F227L + V106A” value (HIV-1 F227L + V106A; ratio of EC50 values vs RPV) was 15.3 fold and the “RF F227L + V106A” value (HIV-1 F227L + V106A; [6]) was 1.6. The “SI F227L + V106A” value (HIV-1 F227L + V106A; [7]) was 619, the CC50 at 5 days [2] was 3310 ± 1700 nM and the IC50 (HIV-1 RT) was 529 ± 142 nM. It also gave an IC50 (CYP2C9) of 3410 nM, an IC50 (CYP2C19) of 15600 nM and an IC50 (hERG channel) of 79 nM. For the same molecule, the “V (iv)” value ([3]; SD rats, iv 2 mg/kg, mean ± SD, n = 3, 2 mg/kg) was 49.7 L/kg, the AUC(0-inf) [3, 8] was 1210 ± 78.9 ng·h/mL and the AUC(0-t) [3, 8] was 1150 ± 69.7 ng·h/mL. The MRT inf [3, 8] was 2.03 ± 0.41 h, the MRT last [3, 8] was 1.56 ± 0.17 h and the clearance [3, 8] was 277 mL/min/kg. It also gave a half-life [3, 8] of 2.09 ± 0.39 h, a bioavailability ([3]; Sprague-Dawley, rat, plasma, oral, 20 mg/kg) of 15.3% and an AUC(0-inf) [3, 9] of 1860 ± 1680 ng·h/mL. For the same molecule, the AUC(0-t) [3, 9] was 1680 ± 1480 ng·h/mL, the Cmax [3, 9] was 333 ± 276 ng/mL and the MRT inf [3, 9] was 5.02 ± 0.48 h. For the same molecule, the MRT last [3, 9] was 4.1 ± 0.12 h, the Tmax [3, 9] was 1.5 ± 0.87 h and the half-life [3, 9] was 3 ± 0.74 h. For the same molecule, the “Death or signs of intoxication” value [4] was “no death or signs of intoxication”, the IC50 at 10 min [5] was 3410 to 50000 nM and the solubility (physchem; pH 2, aqueous buffer) was 161 µg/mL (≈ 273 µM). For the same molecule, the solubility (physchem; pH 7, aqueous buffer) was 11.7 µg/mL (≈ 19.8 µM), the solubility (physchem; pH 7.4, aqueous buffer) was 3.04 µg/mL (≈ 5.15 µM) and the IC50 (CYP2D6) was 36800 nM. For the same molecule, the IC50 (CYP1A2) was > 50000 nM and the IC50 (CYP3A4) was 13500 nM.
